This is an account of results in ChEMBL document CHEMBL5030507, “Structure-Based Design of a Selective Class I Histone Deacetylase (HDAC) Near-Infrared (NIR) Probe for Epigenetic Regulation Detection in Triple-Negative Breast Cancer (TNBC)” (J Med Chem, 2021).

The target of data set [1] is Histone deacetylase 5 (Homo sapiens, UniProt Q9UQL6). The experiment in a line: Inhibition of recombinant human full length N-terminal GST-tagged HDAC5 expressed in baculovirus infected Sf9 insect cells using fluorogenic substrate measured after 60 mins by FRET assay.
Data set [2] is described as follows: Cytotoxicity against human WI-38 cells assessed as cell growth inhibition incubated for 72 hrs by CCK8 assay. In kind it is cell-based. For orientation: Formazan colour is commonly taken as a measure of viable cells.
For data set [3], the target named is Histone deacetylase 2 (Homo sapiens, UniProt Q92769). The experiment in a line: biochemical. In kind it is cell-based, Sf9.
Description: Inhibition of recombinant human full length C-terminal His- tagged HDAC2 (1 to 488 residues) expressed in Sf9 insect cells using fluorometric substrate measured after 60 mins by FRET assay
The target in data set [4] is Histone deacetylase 4 (Homo sapiens, UniProt P56524). Put plainly: Inhibition of recombinant human N-terminal GST-tagged/C-terminal His-tagged HDAC4 (627 to 1084 residues) expressed in baculovirus infected Sf9 insect cells using fluorogenic substrate measured after 60 mins by FRET assay.
Data set [5] deals with MDA-MB-231. The experiment in a line: Antiproliferative activity against triple-negative human MDA-MB-231 cells assessed as cell growth inhibition incubated for 72 hrs by CCK8 assay. In kind it is functional.
Data set [6] concerns the target T1, Histone deacetylase 7 (Homo sapiens, UniProt Q8WUI4).
T1 sequence (Q8WUI4 whole entry): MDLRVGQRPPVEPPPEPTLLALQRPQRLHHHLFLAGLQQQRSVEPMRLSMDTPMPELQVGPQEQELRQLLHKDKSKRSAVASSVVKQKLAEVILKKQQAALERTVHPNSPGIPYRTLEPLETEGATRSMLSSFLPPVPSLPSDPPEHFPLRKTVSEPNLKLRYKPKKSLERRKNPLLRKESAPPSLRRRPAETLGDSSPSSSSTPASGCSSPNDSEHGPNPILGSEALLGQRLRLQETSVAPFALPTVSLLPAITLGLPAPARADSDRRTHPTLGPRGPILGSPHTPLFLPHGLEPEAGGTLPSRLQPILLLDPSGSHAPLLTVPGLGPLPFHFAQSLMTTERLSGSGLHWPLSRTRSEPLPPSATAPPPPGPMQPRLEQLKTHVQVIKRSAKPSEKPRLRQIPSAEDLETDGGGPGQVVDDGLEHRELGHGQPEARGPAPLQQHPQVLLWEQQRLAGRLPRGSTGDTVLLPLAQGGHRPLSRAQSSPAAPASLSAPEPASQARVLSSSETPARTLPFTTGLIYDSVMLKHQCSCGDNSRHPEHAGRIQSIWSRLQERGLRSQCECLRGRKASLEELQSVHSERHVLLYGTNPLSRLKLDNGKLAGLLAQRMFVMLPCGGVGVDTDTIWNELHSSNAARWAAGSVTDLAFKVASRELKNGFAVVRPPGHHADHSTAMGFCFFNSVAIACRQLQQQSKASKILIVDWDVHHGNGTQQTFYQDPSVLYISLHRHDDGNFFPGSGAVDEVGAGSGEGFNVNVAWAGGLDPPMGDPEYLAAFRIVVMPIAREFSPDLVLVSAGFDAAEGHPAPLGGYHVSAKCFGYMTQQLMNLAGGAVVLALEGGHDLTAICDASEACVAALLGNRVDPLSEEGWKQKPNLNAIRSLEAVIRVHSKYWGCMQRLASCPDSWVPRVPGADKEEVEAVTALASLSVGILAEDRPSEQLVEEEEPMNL
The experiment in a line: Inhibition of recombinant human N-terminal GST-tagged HDAC7 expressed in baculovirus infected Sf9 insect cells using fluorogenic substrate measured after 60 mins by FRET assay.

The target of data set [7] is T2, Polyamine deacetylase HDAC10 (Homo sapiens, UniProt Q969S8).
T2 sequence (Q969S8 whole entry): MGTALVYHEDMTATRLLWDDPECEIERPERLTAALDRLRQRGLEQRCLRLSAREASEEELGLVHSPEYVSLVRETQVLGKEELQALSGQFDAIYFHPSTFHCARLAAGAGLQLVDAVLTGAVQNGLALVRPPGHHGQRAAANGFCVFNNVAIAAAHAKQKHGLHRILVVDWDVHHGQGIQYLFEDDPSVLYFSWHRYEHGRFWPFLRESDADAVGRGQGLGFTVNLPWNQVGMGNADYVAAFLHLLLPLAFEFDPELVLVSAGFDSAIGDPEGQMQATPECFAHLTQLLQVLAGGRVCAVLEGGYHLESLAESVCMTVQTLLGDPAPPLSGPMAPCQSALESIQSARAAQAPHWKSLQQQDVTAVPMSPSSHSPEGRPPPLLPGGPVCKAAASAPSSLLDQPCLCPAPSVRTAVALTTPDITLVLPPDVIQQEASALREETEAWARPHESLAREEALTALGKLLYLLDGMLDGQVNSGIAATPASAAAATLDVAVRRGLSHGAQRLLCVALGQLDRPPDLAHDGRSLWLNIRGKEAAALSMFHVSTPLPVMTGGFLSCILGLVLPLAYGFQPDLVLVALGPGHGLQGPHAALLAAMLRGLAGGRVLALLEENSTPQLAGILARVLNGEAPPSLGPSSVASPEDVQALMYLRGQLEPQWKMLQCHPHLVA
The experiment in a line: Inhibition of recombinant human N-terminal FLAG tagged HDAC10 (2 to 631 residues) expressed in baculovirus infected Sf9 insect cells using fluorogenic substrate measured after 60 mins by FRET assay.

The target of data set [8] is Histone deacetylase 3/Nuclear receptor corepressor 2 (HDAC3/NCoR2) (Homo sapiens, UniProt O15379). The experiment in a line: Inhibition of C-terminal His-tagged recombinant human HDAC3 (1 to 428 residues)/N-terminal GST-tagged recombinant human NCoR2 (395 to 489 residues) co-expressed in baculovirus infected Sf9 cells using fluorometric substrate measured after 60 mins by FRET assay.

Data set [9] addresses Histone deacetylase 9 (Homo sapiens, UniProt Q9UKV0). The experiment in a line: Inhibition of recombinant human C-terminal His-tagged HDAC9 (604 to 1066 residues) expressed in baculovirus infected Sf9 insect cells using fluorogenic substrate measured after 60 mins by FRET assay.
For data set [10], the target named is T3, Histone deacetylase 8 (Homo sapiens, UniProt Q9BY41).
T3 sequence (Q9BY41 whole entry): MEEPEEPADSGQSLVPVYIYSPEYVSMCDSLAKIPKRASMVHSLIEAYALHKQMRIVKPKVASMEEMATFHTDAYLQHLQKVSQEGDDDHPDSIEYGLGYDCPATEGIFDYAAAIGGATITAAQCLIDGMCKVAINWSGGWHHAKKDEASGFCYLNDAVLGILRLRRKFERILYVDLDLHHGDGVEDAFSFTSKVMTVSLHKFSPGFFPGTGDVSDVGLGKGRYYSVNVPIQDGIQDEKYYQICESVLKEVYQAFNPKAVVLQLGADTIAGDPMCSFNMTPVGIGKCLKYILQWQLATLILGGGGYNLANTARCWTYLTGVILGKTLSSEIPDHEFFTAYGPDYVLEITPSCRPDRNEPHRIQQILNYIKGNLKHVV
The experiment in a line: Inhibition of recombinant human full length C-terminal His-tagged HDAC8 expressed in baculovirus infected Sf9 insect cells using fluorometric substrate measured after 60 mins by FRET assay.

A value given as a limit tells only on which side of the number the result lay.

Sequence of Histone deacetylase 9 (Q9UKV0 whole entry, the tested form may be a part): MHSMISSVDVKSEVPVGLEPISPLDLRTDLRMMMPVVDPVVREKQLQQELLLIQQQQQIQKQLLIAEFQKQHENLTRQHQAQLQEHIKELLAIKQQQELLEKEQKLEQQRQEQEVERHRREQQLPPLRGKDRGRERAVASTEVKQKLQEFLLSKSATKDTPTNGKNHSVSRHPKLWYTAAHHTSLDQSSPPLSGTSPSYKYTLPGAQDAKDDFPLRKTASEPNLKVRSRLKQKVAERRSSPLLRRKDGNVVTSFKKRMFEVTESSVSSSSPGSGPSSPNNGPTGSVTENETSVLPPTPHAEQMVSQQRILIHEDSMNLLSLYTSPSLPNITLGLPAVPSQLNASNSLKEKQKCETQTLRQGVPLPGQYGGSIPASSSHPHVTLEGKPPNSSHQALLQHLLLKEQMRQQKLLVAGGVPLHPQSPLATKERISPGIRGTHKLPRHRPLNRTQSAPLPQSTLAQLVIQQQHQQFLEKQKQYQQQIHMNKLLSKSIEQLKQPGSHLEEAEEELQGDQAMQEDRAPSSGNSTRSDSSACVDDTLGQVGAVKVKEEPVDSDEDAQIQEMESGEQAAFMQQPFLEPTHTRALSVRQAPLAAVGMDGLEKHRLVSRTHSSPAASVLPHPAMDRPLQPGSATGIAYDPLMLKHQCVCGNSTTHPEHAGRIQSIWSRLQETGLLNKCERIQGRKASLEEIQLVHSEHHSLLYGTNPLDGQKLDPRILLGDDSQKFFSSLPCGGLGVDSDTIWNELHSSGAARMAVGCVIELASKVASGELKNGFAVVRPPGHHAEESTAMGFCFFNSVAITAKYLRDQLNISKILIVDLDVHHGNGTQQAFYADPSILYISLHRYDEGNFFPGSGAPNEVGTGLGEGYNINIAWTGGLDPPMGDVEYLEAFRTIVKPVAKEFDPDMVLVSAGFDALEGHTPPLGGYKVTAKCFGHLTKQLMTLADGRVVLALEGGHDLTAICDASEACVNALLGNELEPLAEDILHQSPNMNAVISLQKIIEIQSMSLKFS
Sequence of Histone deacetylase 2 (Q92769 whole entry, the tested form may be a part): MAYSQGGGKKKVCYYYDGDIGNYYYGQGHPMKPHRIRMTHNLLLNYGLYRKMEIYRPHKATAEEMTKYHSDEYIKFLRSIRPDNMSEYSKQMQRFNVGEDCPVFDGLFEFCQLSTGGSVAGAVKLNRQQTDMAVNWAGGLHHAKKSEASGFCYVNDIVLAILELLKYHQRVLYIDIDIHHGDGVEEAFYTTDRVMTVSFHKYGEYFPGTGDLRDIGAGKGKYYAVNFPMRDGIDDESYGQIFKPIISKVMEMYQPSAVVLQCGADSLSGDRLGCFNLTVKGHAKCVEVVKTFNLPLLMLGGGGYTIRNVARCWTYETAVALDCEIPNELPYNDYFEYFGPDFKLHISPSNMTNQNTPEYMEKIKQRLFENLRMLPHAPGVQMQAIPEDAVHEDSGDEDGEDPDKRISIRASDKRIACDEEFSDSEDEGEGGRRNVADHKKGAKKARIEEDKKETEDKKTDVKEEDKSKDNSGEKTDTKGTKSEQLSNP
Sequence of Histone deacetylase 4 (P56524 whole entry, the tested form may be a part): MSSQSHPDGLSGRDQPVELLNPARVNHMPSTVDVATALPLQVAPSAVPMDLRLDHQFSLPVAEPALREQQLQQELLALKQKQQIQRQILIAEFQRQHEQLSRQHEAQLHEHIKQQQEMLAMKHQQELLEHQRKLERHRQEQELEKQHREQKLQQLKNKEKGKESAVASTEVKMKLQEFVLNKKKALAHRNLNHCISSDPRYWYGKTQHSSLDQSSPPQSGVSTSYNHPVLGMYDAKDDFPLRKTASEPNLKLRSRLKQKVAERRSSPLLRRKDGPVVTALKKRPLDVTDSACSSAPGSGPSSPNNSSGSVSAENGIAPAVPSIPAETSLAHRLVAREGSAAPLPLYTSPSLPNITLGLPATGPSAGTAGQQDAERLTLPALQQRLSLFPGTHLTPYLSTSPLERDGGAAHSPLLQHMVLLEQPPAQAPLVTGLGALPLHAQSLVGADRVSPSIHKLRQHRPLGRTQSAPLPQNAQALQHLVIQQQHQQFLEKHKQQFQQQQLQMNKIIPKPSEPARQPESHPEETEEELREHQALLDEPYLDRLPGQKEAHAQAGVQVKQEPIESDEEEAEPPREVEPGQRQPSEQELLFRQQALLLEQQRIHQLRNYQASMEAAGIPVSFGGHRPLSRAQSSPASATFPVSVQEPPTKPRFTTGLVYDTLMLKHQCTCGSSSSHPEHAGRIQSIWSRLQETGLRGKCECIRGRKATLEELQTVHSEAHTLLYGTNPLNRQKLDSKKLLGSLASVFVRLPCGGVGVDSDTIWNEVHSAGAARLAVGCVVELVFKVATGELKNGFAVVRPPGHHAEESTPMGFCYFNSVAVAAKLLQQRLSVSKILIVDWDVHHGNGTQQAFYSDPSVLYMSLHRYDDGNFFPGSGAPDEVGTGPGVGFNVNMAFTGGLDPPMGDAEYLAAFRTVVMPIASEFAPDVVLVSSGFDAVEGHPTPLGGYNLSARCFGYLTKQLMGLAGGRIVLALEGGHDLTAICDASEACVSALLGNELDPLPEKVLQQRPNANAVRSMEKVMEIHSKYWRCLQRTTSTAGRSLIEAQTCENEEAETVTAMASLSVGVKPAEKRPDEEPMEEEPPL
Sequence of Histone deacetylase 5 (Q9UQL6 whole entry): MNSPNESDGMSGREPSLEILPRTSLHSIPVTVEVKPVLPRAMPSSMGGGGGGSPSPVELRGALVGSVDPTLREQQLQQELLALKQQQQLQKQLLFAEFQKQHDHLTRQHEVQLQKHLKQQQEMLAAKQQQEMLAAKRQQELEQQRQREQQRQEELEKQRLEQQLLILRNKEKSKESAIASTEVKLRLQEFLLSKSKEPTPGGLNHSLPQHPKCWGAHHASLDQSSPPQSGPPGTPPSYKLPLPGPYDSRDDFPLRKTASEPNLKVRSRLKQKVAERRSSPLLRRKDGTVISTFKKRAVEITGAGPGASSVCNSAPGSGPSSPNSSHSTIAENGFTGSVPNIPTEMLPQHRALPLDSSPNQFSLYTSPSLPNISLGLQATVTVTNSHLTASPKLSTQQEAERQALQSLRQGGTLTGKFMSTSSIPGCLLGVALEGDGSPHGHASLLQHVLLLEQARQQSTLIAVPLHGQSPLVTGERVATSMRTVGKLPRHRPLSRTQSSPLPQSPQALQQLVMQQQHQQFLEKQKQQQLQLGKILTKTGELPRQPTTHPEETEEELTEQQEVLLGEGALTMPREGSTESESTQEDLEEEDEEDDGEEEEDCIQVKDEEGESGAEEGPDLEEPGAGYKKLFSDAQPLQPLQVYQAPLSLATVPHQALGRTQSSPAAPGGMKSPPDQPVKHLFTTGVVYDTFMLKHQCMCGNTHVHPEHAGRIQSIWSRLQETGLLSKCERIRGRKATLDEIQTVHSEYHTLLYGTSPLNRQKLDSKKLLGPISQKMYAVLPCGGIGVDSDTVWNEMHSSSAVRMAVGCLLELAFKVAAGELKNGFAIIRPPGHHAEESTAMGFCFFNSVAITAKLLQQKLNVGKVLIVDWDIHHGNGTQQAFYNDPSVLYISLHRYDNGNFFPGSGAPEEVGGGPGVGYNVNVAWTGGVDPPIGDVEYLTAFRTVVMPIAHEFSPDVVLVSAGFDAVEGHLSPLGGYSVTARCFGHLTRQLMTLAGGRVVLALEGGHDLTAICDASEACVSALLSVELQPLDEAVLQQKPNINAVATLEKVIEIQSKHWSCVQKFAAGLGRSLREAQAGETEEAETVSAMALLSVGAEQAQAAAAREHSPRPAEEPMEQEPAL

What is called IC50 is the concentration that inhibits the measured activity by half. In general, GI50 refers to the concentration at which growth is held to half of that of the control. Consider `C/C=C1\NC(=O)c2csc(n2)CNC(=O)C[C@@H](/C=C/CCSSCCCCCCC)OC(=O)[C@H](CCCCN)NC1=O`, for which the 50% inhibitory concentration (IC50) in data set [1] is greater than 10000 nM; in data set [3], 7.5 nM; in data set [4], greater than 10000 nM; in data set [6] it was greater than 10000 nM; in data set [7], greater than 10000 nM; in data set [8], 10.3 nM. Further, the 50% inhibitory concentration (IC50) in data set [9] and in data set [10] was greater than 10000 nM each time. For the same compound, the GI50 at 72 h in data set [2] stood at 2320 nM. Also, the 50% growth inhibitory concentration (GI50) in data set [5] is 11.9 nM.
